The values that follow come from ChEMBL document CHEMBL4651402, “Screening of ~5500 FDA-approved drugs and clinical candidates for anti-SARS-CoV-2 activity” (2021).

The structures appear in SMILES notation. Some results are limits rather than exact numbers.

The test relates to SARS-CoV-2. The experiment in a line: microbe, parasite or virus in culture. The following applies: Severe acute respiratory syndrome coronavirus 2, Vero C1008, 48 h.

`Nc1cc(N2CCCCC2)nc(N)[n+]1[O-]` [MINOXIDIL]: the IC50 was greater than 20 µM. The IC50 (read-out: pIC50 (converted)) is greater than 20 µM.

Molecule `Nc1ccc(C#Cc2cnn3c(C(F)(F)F)cc(-c4ccc(C(F)(F)F)cc4)nc23)cn1` [DECOGLURANT] came in with an IC50 greater than 20 µM. Besides, the IC50 (read-out: pIC50 (converted)) was greater than 20 µM.

`COc1ccc(/C=C2\CCCN=C2c2cccnc2)c(OC)c1` [GTS-21] had an IC50 greater than 20 µM. Besides, where the note is “read-out: pIC50 (converted)”, the IC50 was greater than 20 µM.

In turn, `CC(O)(CS(=O)(=O)c1ccc(F)cc1)C(=O)Nc1ccc(C#N)c(C(F)(F)F)c1` (stereo unspecified) [BICALUTAMIDE] came in with an IC50 greater than 20 µM. The IC50 (read-out: pIC50 (converted)) is greater than 20 µM.

As for `c1ccc2c(c1)cc1ccc3cccc4ccc2c1c34`, the IC50 was greater than 20 µM. In addition, the IC50 (read-out: pIC50 (converted)) was greater than 20 µM.

The molecule `c1ccc(-c2ccc(C(c3ccccc3)n3ccnc3)cc2)cc1` (stereo unspecified) [BIFONAZOLE] gave an IC50 greater than 20 µM. For the setting “read-out: pIC50 (converted)”, the IC50 is greater than 20 µM.

On to `CCCNC(=O)NS(=O)(=O)c1ccc(Cl)cc1` [CHLORPROPAMIDE], for which the IC50 was greater than 20 µM. Also, the IC50 (read-out: pIC50 (converted)) is greater than 20 µM.

Take `O=C(N[C@@H](Cc1c[nH]c2ccccc12)C(=O)O)c1ccc(Cl)cc1` [BENZOTRIPT]: the IC50 was greater than 20 µM. The IC50 (read-out: pIC50 (converted)) was greater than 20 µM.

`CC[C@]1(c2ccccc2)NC(=O)N(C)C1=O` returned an IC50 greater than 20 µM. The IC50 (read-out: pIC50 (converted)) was greater than 20 µM.

Turning to `COc1cc(C(C)=O)ccc1O` [APOCYNIN], the IC50 was greater than 20 µM. The IC50 (read-out: pIC50 (converted)) is greater than 20 µM.

In the case of `CCC(=O)C(CC(C)N1CCOCC1)(c1ccccc1)c1ccccc1` (stereo unspecified) [PHENADOXONE], the IC50 is greater than 20 µM. In addition, the IC50 (read-out: pIC50 (converted)) was greater than 20 µM.

Molecule `CC(CCc1ccc(O)cc1)NCCc1ccc(O)c(O)c1` (stereo unspecified) [DOBUTAMINE] showed an IC50 greater than 20 µM. Where the note is “read-out: pIC50 (converted)”, the IC50 is greater than 20 µM.

`OC[C@H]1O[C@@H]2O[C@H]3[C@H](O)[C@@H](O)[C@@H](O[C@H]4[C@H](O)[C@@H](O)[C@@H](O[C@H]5[C@H](O)[C@@H](O)[C@@H](O[C@H]6[C@H](O)[C@@H](O)[C@@H](O[C@H]7[C@H](O)[C@@H](O)[C@@H](O[C@H]1[C@H](O)[C@H]2O)O[C@@H]7CO)O[C@@H]6CO)O[C@@H]5CO)O[C@@H]4CO)O[C@@H]3CO` [ALFADEX] registered an IC50 greater than 20 µM. For the same molecule, for the setting “read-out: pIC50 (converted)”, the IC50 is greater than 20 µM.

The molecule `Cc1cn([C@@H]2C[C@H](O)[C@@H](CO)O2)c(=O)[nH]c1=O` displayed an IC50 greater than 20 µM. In addition, for the setting “read-out: pIC50 (converted)”, the IC50 was greater than 20 µM.

In turn, `CC1CC[C@@]2(OC1)OC1CC3C4CC[C@H]5CC(O)CCC5(C)C4CC(=O)C3(C)C1C2C` (stereo partly specified) gave an IC50 greater than 20 µM. For the setting “read-out: pIC50 (converted)”, the IC50 is greater than 20 µM.

In the case of `CC1(C)O[C@@H]2C[C@H]3[C@@H]4C[C@H](F)C5=CC(=O)C=C[C@]5(C)[C@@]4(F)[C@@H](O)C[C@]3(C)[C@]2(C(=O)CO)O1` [FLUOCINOLONE ACETONIDE], the IC50 is greater than 20 µM. Further, the IC50 (read-out: pIC50 (converted)) is greater than 20 µM.

For `C[C@H]1O[C@@H](O[C@H]2[C@@H](O)C[C@H](O[C@H]3[C@@H](O)C[C@H](O[C@H]4CC[C@@]5(C)[C@H](CC[C@@H]6[C@@H]5CC[C@]5(C)[C@@H](C7=CC(=O)OC7)[C@@H](O)C[C@]65O)C4)O[C@@H]3C)O[C@@H]2C)C[C@H](O)[C@@H]1O` [GITOXIN], the IC50 is greater than 20 µM. Moreover, the IC50 (read-out: pIC50 (converted)) is greater than 20 µM.

As to `CNc1ccc(-c2ccc3cc(OC[C@H](O)CF)ccc3n2)cc1`, the IC50 was greater than 20 µM. Further, under “read-out: pIC50 (converted)”, the IC50 is greater than 20 µM.

Regarding `CN1C(=O)C(NC(=O)c2cc3ccccc3[nH]2)N=C(c2ccccc2)c2ccccc21` (stereo unspecified), the IC50 was greater than 20 µM. Moreover, the IC50 (read-out: pIC50 (converted)) was greater than 20 µM.

In the case of `CCCCCC(=O)CCC1(C)C2Cc3ccc(O)cc3C1(C)CCN2C` (stereo unspecified), the IC50 is greater than 20 µM. Also, the IC50 (read-out: pIC50 (converted)) is greater than 20 µM.

`CC(=O)Nc1cc2ccccc2oc1=O`: the IC50 was greater than 20 µM. Besides, the IC50 (read-out: pIC50 (converted)) was greater than 20 µM.

`CCn1c(=O)c2c(nc(/C=C/c3ccc(OC)c(OC)c3)n2C)n(CC)c1=O` [ISTRADEFYLLINE] had an IC50 greater than 20 µM. The IC50 (read-out: pIC50 (converted)) is greater than 20 µM.

Turning to `CCc1cc2c(cc1N1CCC(N3CCOCC3)CC1)C(C)(C)c1[nH]c3cc(C#N)ccc3c1C2=O` [ALECTINIB], the IC50 was greater than 20 µM. Moreover, the IC50 (read-out: pIC50 (converted)) is greater than 20 µM.

As to `CN(C)CCC(c1ccccc1)C1CCCCC1` (stereo unspecified) [GAMFEXINE], the IC50 is greater than 20 µM. Besides, the IC50 (read-out: pIC50 (converted)) was greater than 20 µM.

Regarding `COc1cccc([C@H](O)C2CCN(CCc3ccc(F)cc3)CC2)c1OC` [VOLINANSERIN], the IC50 is greater than 20 µM. Further, for the setting “read-out: pIC50 (converted)”, the IC50 is greater than 20 µM.

`C[C@H](N)[C@H](O)c1ccc(O)c(O)c1` [LEVONORDEFRIN] displayed an IC50 greater than 20 µM. For the same molecule, the IC50 (read-out: pIC50 (converted)) is greater than 20 µM.

Consider `NC[C@H]1CC[C@H](C(=O)O)CC1` [TRANEXAMIC ACID], for which the IC50 is greater than 20 µM. Further, where the note is “read-out: pIC50 (converted)”, the IC50 was greater than 20 µM.

For `CC[C@H]1C2C[C@H]3[C@@H]4N(C)c5ccccc5[C@]45C[C@H](C2[C@H]5O)N3[C@@H]1O` (stereo partly specified), the IC50 was greater than 20 µM. Also, where the note is “read-out: pIC50 (converted)”, the IC50 was greater than 20 µM.

`O=c1[nH]c(=O)n(C2CC(O)C(CO)O2)cc1Br` (stereo unspecified) registered an IC50 greater than 20 µM. The IC50 (read-out: pIC50 (converted)) is greater than 20 µM.

Turning to `COCCCC/C(=N\OCCN)c1ccc(C(F)(F)F)cc1` [FLUVOXAMINE], the IC50 was greater than 20 µM. For the same molecule, the IC50 (read-out: pIC50 (converted)) is greater than 20 µM.

`Nc1c2ccccc2nc2ccccc12` [AMINACRINE]: the IC50 is greater than 20 µM. Also, the IC50 (read-out: pIC50 (converted)) was greater than 20 µM.

`COc1ccccc1OCC(O)COC(N)=O` (stereo unspecified) [METHOCARBAMOL]: the IC50 was greater than 20 µM. In addition, the IC50 (read-out: pIC50 (converted)) was greater than 20 µM.

Take `O=C1O[C@H](CO)[C@@H](O)[C@H](O)[C@H]1O` [GLUCONOLACTONE]: the IC50 is greater than 20 µM. Besides, the IC50 (read-out: pIC50 (converted)) is greater than 20 µM.

Take `CS(=O)(=O)c1ccc(-c2cn3ccccc3n2)cc1` [ZOLIMIDINE]: the IC50 was greater than 20 µM. Also, where the note is “read-out: pIC50 (converted)”, the IC50 is greater than 20 µM.

For `CCCCOc1nc(N)c2c(n1)N(Cc1cccc(CN3CCCC3)c1)CC(=O)N2` [VESATOLIMOD], the IC50 is greater than 20 µM. Besides, the IC50 (read-out: pIC50 (converted)) is greater than 20 µM.

With `CCN(CC)C(=O)N[C@H]1C=C2c3cccc4[nH]c(Br)c(c34)C[C@H]2N(C)C1` [BROMERGURIDE], the IC50 is greater than 20 µM. For the setting “read-out: pIC50 (converted)”, the IC50 is greater than 20 µM.

As for `Cc1c(F)cc(C(=O)NC2CC2)cc1-c1ccc(C(=O)NCC(C)(C)C)cn1` [LOSMAPIMOD], the IC50 is greater than 20 µM. In addition, the IC50 (read-out: pIC50 (converted)) is greater than 20 µM.

`COC(=O)N[C@H](C(=O)N1CCC[C@H]1c1ncc(-c2ccc(-c3ccc(-c4cnc([C@@H]5CC6(CN5C(=O)[C@@H](NC(=O)OC)C(C)C)OCCO6)[nH]4)cc3)cc2)[nH]1)C(C)C` yielded an IC50 greater than 20 µM. Besides, the IC50 (read-out: pIC50 (converted)) was greater than 20 µM.

In turn, `O=c1c(O)c(-c2ccccc2)oc2ccccc12` [FLAVONOL] showed an IC50 greater than 20 µM. In addition, under “read-out: pIC50 (converted)”, the IC50 is greater than 20 µM.

`Clc1cccc(N2CCNCC2)c1` [CHLOROPHENYLPIPERAZINE] returned an IC50 greater than 20 µM. Moreover, the IC50 (read-out: pIC50 (converted)) was greater than 20 µM.

Regarding `O=C1CN=C(c2ccccc2)c2c(sc3c2CCCC3)N1` [BENTAZEPAM], the IC50 was greater than 20 µM. For the same molecule, the IC50 (read-out: pIC50 (converted)) was greater than 20 µM.

`CCN(CC)CCOC(=O)C1(c2ccccc2)CCCC1` returned an IC50 greater than 20 µM. The IC50 (read-out: pIC50 (converted)) was greater than 20 µM.

Molecule `C[C@H](Cc1ccccc1)N(C)Cc1ccco1` registered an IC50 greater than 20 µM. The IC50 (read-out: pIC50 (converted)) was greater than 20 µM.
